From the NIST ThermoML archive (doi:10.1016/j.jct.2016.03.026)

Assay: xn = mol fraction of the nth substance listed
Conditions: Fluid (supercritical or subcritical phases), Vibrating tube method, x1 = 0.97

O=C=O [carbon dioxide] + CO
Conditions	mass density [kg/m3]
304.21 K, 19750 kPa	887.4
304.21 K, 19775 kPa	887.64
304.21 K, 19800 kPa	887.8
304.21 K, 19825 kPa	887.96
304.21 K, 19850 kPa	888.12
304.21 K, 19875 kPa	888.28
304.21 K, 19900 kPa	888.48
304.21 K, 19925 kPa	888.67
304.21 K, 19950 kPa	888.82
304.21 K, 19975 kPa	888.98
304.21 K, 20000 kPa	889.2
313.15 K, 8375 kPa	468.68
313.15 K, 8400 kPa	477.47
313.15 K, 8425 kPa	486.09
313.15 K, 8450 kPa	494.72
313.15 K, 8475 kPa	503.03
313.15 K, 8500 kPa	510.78
313.15 K, 8525 kPa	518.43
313.15 K, 8550 kPa	525.63
313.15 K, 8575 kPa	531.85
313.15 K, 8600 kPa	538.44
313.15 K, 8625 kPa	544.56
313.15 K, 8650 kPa	551.14
313.15 K, 8675 kPa	556.46
313.15 K, 8700 kPa	562.19
313.15 K, 8725 kPa	566.94
313.15 K, 8750 kPa	571.39
313.15 K, 8775 kPa	576
313.15 K, 8800 kPa	580.21
313.15 K, 8825 kPa	583.78
313.15 K, 8850 kPa	587.78
313.15 K, 8875 kPa	591.7
313.15 K, 8900 kPa	595.4
313.15 K, 8925 kPa	598.87
313.15 K, 8950 kPa	601.87
313.15 K, 8975 kPa	604.9
313.15 K, 9000 kPa	608.05
313.15 K, 9025 kPa	611
313.15 K, 9050 kPa	613.79
313.15 K, 9075 kPa	616.51
313.15 K, 9100 kPa	619.14
313.15 K, 9125 kPa	621.62
313.15 K, 9150 kPa	624.11
313.15 K, 9175 kPa	626.69
313.15 K, 9200 kPa	629
313.15 K, 9225 kPa	631.2
313.15 K, 9250 kPa	633.38
313.15 K, 9275 kPa	635.44
313.15 K, 9300 kPa	637.48
313.15 K, 9325 kPa	639.32
313.15 K, 9350 kPa	641.4
313.15 K, 9375 kPa	643.26
313.15 K, 9400 kPa	645.2
313.15 K, 9425 kPa	646.98
313.15 K, 9450 kPa	648.9
313.15 K, 9475 kPa	650.62
313.15 K, 9500 kPa	652.27
313.15 K, 9525 kPa	653.94
313.15 K, 9550 kPa	655.55
313.15 K, 9575 kPa	657.12
313.15 K, 9600 kPa	658.64
313.15 K, 9625 kPa	660.18
313.15 K, 9650 kPa	661.7
313.15 K, 9675 kPa	663.21
313.15 K, 9700 kPa	664.7
313.15 K, 9725 kPa	666.14
313.15 K, 9750 kPa	667.47
313.15 K, 9775 kPa	668.89
313.15 K, 9800 kPa	670.26
313.15 K, 9825 kPa	671.58
313.15 K, 9850 kPa	672.87
313.15 K, 9875 kPa	674.13
313.15 K, 9900 kPa	675.44
313.15 K, 9925 kPa	676.66
313.15 K, 9950 kPa	677.96
313.15 K, 9975 kPa	679.1
313.15 K, 10000 kPa	680.33
313.15 K, 10025 kPa	681.48
313.15 K, 10050 kPa	682.54
313.15 K, 10075 kPa	683.7
313.15 K, 10100 kPa	684.8
313.15 K, 10125 kPa	685.84
313.15 K, 10150 kPa	686.83
313.15 K, 10175 kPa	687.88
313.15 K, 10200 kPa	688.8
313.15 K, 10225 kPa	689.94
313.15 K, 10250 kPa	690.95
313.15 K, 10275 kPa	691.93
313.15 K, 10300 kPa	693
313.15 K, 10325 kPa	693.97
313.15 K, 10350 kPa	694.91
313.15 K, 10375 kPa	695.92
313.15 K, 10400 kPa	696.92
313.15 K, 10425 kPa	697.78
313.15 K, 10450 kPa	698.73
313.15 K, 10475 kPa	699.66
313.15 K, 10500 kPa	700.62
313.15 K, 10525 kPa	701.51
313.15 K, 10550 kPa	702.39
313.15 K, 10575 kPa	703.29
313.15 K, 10600 kPa	704.13
313.15 K, 10625 kPa	705.05
313.15 K, 10650 kPa	705.9
313.15 K, 10675 kPa	706.75
313.15 K, 10700 kPa	707.66
313.15 K, 10725 kPa	708.5
313.15 K, 10750 kPa	709.33
313.15 K, 10775 kPa	710.14
313.15 K, 10800 kPa	710.93
313.15 K, 10825 kPa	711.74
313.15 K, 10850 kPa	712.55
313.15 K, 10875 kPa	713.33
313.15 K, 10900 kPa	714.15
313.15 K, 10925 kPa	714.94
313.15 K, 10950 kPa	715.71
313.15 K, 10975 kPa	716.52
313.15 K, 11000 kPa	717.28
313.15 K, 11025 kPa	718.03
313.15 K, 11050 kPa	718.76
313.15 K, 11075 kPa	719.52
313.15 K, 11100 kPa	720.27
313.15 K, 11125 kPa	720.97
